# Data: US20130303509A1, “NAMPT INHIBITORS” (AbbVie Inc., priority 2012, published 2013)
# Tested on: PC3 cells
# Test: NAMPT Cell Proliferation Assay
# Assay type: cell-based
# Details: Homo sapiens, PC-3, 120 h, 5 days incubation, cell viability by Cell Titer Glo
# Procedure, shortened: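 Five-day CellTiter-Glo viability readout in PC3 cells grown in RPMI/10% heat-inactivated FBS. Compounds added after overnight attachment as a 10-fold dilution series, […]. Percent inhibition fitted to sigmoidal dose-response to derive IC50.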
row,IC50,Compound
1,86.9 nM,"O=C(NCC(=O)N1CCC(c2ccc(NC(=O)[C@H]3CCN(c4cccnn4)C3)cc2)CC1)c1ccccc1 [Example 650, (3S)-N-{4-[1-(N-benzoylglycyl)piperidin-4-yl]phenyl}-1-(pyridazin-3-yl)pyrrolidine-3-carboxamide]"
2,27.6 nM,"O=C(Nc1ccc(C2CCN(C(=O)Cc3ccc(Cl)cc3Cl)CC2)cc1)[C@H]1CCN(c2cccnn2)C1 [Example 651, (3S)-N-(4-{1-[(2,4-dichlorophenyl)acetyl]piperidin-4-yl}phenyl)-1-(pyridazin-3-yl)pyrrolidine-3-carboxamide]"
3,6.14 nM,"Cc1ccccc1C(=O)N1CCC(c2ccc(NC(=O)[C@H]3CCN(c4cccnn4)C3)cc2)CC1 [Example 652, (3S)-N-{4-[1-(2-methylbenzoyl)piperidin-4-yl]phenyl}-1-(pyridazin-3-yl)pyrrolidine-3-carboxamide]"
4,9.72 nM,"O=C(Nc1ccc(C2CCN(C(=O)CCC(F)(F)F)CC2)cc1)[C@H]1CCN(c2cccnn2)C1 [Example 653, (3S)-1-(pyridazin-3-yl)-N-{4-[1-(4,4,4-trifluorobutanoyl)piperidin-4-yl]phenyl}pyrrolidine-3-carboxamide]"
5,2.76 nM,"CC1(C(=O)N2CCC(c3ccc(NC(=O)[C@H]4CCN(c5cccnn5)C4)cc3)CC2)CCCCC1 [Example 654, (3S)-N-(4-{1-[(1-methylcyclohexyl)carbonyl]piperidin-4-yl}phenyl)-1-(pyridazin-3-yl)pyrrolidine-3-carboxamide]"
6,0.475 nM,"O=C(Nc1ccc(C2CCN(C(=O)c3ccsc3)CC2)cc1)[C@H]1CCN(c2cccnn2)C1 [Example 655, (3S)-1-(pyridazin-3-yl)-N-{4-[1-(thiophen-3-ylcarbonyl)piperidin-4-yl]phenyl}pyrrolidine-3-carboxamide]"
7,61 nM,"Cc1ccc(C(=O)N2CCC(c3ccc(NC(=O)[C@H]4CCN(c5cccnn5)C4)cc3)CC2)cn1 [Example 656, (3S)-N-(4-{1-[(6-methylpyridin-3-yl)carbonyl]piperidin-4-yl}phenyl)-1-(pyridazin-3-yl)pyrrolidine-3-carboxamide]"
8,8.44 nM,"O=C(Nc1ccc(C2CCN(C(=O)Cc3cccc(Cl)c3)CC2)cc1)[C@H]1CCN(c2cccnn2)C1 [Example 657, (3S)-N-(4-{1-[(3-chlorophenyl)acetyl]piperidin-4-yl}phenyl)-1-(pyridazin-3-yl)pyrrolidine-3-carboxamide]"
9,14.4 nM,"CCC(=O)N1CCC(c2ccc(NC(=O)[C@H]3CCN(c4cccnn4)C3)cc2)CC1 [Example 658, (3S)-N-[4-(1-propanoylpiperidin-4-yl)phenyl]-1-(pyridazin-3-yl)pyrrolidine-3-carboxamide]"
10,11.2 nM,"O=C(Nc1ccc(C2CCN(C(=O)c3cc(F)cc(F)c3)CC2)cc1)[C@H]1CCN(c2cccnn2)C1 [Example 659, (3S)-N-{4-[1-(3,5-difluorobenzoyl)piperidin-4-yl]phenyl}-1-(pyridazin-3-yl)pyrrolidine-3-carboxamide]"
11,5.23 nM,"O=C(Nc1ccc(C2CCN(C(=O)C3CCCC3)CC2)cc1)[C@H]1CCN(c2cccnn2)C1 [Example 660, (3S)-N-{4-[1-(cyclopentylcarbonyl)piperidin-4-yl]phenyl}-1-(pyridazin-3-yl)pyrrolidine-3-carboxamide]"
12,21.6 nM,"O=C(Nc1ccc(C2CCN(C(=O)C3CCCO3)CC2)cc1)[C@H]1CCN(c2cccnn2)C1 (stereo partly drawn) [Example 661, (3S)-1-(pyridazin-3-yl)-N-{4-[1-(tetrahydrofuran-2-ylcarbonyl)piperidin-4-yl]phenyl}pyrrolidine-3-carboxamide]"
13,15.9 nM,"O=C(Nc1ccc(C2CCN(C(=O)C3CC3)CC2)cc1)[C@H]1CCN(c2cccnn2)C1 [Example 662, (3S)-N-{4-[1-(cyclopropylcarbonyl)piperidin-4-yl]phenyl}-1-(pyridazin-3-yl)pyrrolidine-3-carboxamide]"
14,31.6 nM,"O=C(Nc1ccc(C2CCN(C(=O)c3ccc(Cl)cc3)CC2)cc1)[C@H]1CCN(c2cccnn2)C1 [Example 663, (3S)-N-{4-[1-(4-chlorobenzoyl)piperidin-4-yl]phenyl}-1-(pyridazin-3-yl)pyrrolidine-3-carboxamide]"
15,1150 nM,"CC(C)Cn1cc(-c2cc(C(=O)N[C@H]3CCN(c4cccnn4)C3)cs2)cn1 [Example 664, 5-[1-(2-methylpropyl)-1H-pyrazol-4-yl]-N-[(3S)-1-(pyridazin-3-yl)pyrrolidin-3-yl]thiophene-3-carboxamide]"
16,7620 nM,"Cc1cc(N2CC(C(=O)Nc3ccc(C4CCN(C(=O)c5ccccc5)CC4)cc3)C2)cnc1F [Example 665, N-[4-(1-benzoylpiperidin-4-yl)phenyl]-1-(6-fluoro-5-methylpyridin-3-yl)azetidine-3-carboxamide]"
17,8.06 nM,"O=C(Nc1ccc(C2CCN(C(=O)c3ccccc3)CC2)cc1)C1CN(c2cncc(F)c2)C1 [Example 666, N-[4-(1-benzoylpiperidin-4-yl)phenyl]-1-(5-fluoropyridin-3-yl)azetidine-3-carboxamide]"

row,IC50,Compound
1,12.5 nM,"Cc1ccc(N2CC(C(=O)Nc3ccc(C4CCN(C(=O)c5ccccc5)CC4)cc3)C2)nn1 [Example 667, N-[4-(1-benzoylpiperidin-4-yl)phenyl]-1-(6-methylpyridazin-3-yl)azetidine-3-carboxamide]"
2,> 10000 nM,"Cc1ccc(N2CC(C(=O)Nc3ccc(C4CCN(C(=O)c5ccccc5)CC4)cc3)C2)c(F)n1 [Example 668, N-[4-(1-benzoylpiperidin-4-yl)phenyl]-1-(2-fluoro-6-methylpyridin-3-yl)azetidine-3-carboxamide]"
3,1.88 nM,"O=C(Nc1ccc(C2CCN(C(=O)c3ccccc3Cl)CC2)cc1)[C@H]1CCN(c2cccnn2)C1 [Example 669, (3S)-N-{4-[1-(2-chlorobenzoyl)piperidin-4-yl]phenyl}-1-(pyridazin-3-yl)pyrrolidine-3-carboxamide]"
4,8.53 nM,"CCCC(C)C(=O)N1CCC(c2ccc(NC(=O)[C@H]3CCN(c4cccnn4)C3)cc2)CC1 (stereo partly drawn) [Example 670, (3S)-N-{4-[1-(2-methylpentanoyl)piperidin-4-yl]phenyl}-1-(pyridazin-3-yl)pyrrolidine-3-carboxamide]"
5,8.53 nM,"CC(C)CCC(=O)N1CCC(c2ccc(NC(=O)[C@H]3CCN(c4cccnn4)C3)cc2)CC1 [Example 671, (3S)-N-{4-[1-(4-methylpentanoyl)piperidin-4-yl]phenyl}-1-(pyridazin-3-yl)pyrrolidine-3-carboxamide]"
6,4.05 nM,"Cc1ccc(C(=O)N2CCC(c3ccc(NC(=O)[C@H]4CCN(c5cccnn5)C4)cc3)CC2)c(C)c1 [Example 672, (3S)-N-{4-[1-(2,4-dimethylbenzoyl)piperidin-4-yl]phenyl}-1-(pyridazin-3-yl)pyrrolidine-3-carboxamide]"
7,11.6 nM,"CCCCCCC(=O)N1CCC(c2ccc(NC(=O)[C@H]3CCN(c4cccnn4)C3)cc2)CC1 [Example 673, (3S)-N-[4-(1-heptanoylpiperidin-4-yl)phenyl]-1-(pyridazin-3-yl)pyrrolidine-3-carboxamide]"
8,5.72 nM,"O=C(Nc1ccc(C2CCN(C(=O)c3ccc(Cl)cc3Cl)CC2)cc1)[C@H]1CCN(c2cccnn2)C1 [Example 674, (3S)-N-{4-[1-(2,4-dichlorobenzoyl)piperidin-4-yl]phenyl}-1-(pyridazin-3-yl)pyrrolidine-3-carboxamide]"
9,69.3 nM,"O=C(Nc1ccc(C2CCN(C(=O)Cc3ccc(F)cc3)CC2)cc1)[C@H]1CCN(c2cccnn2)C1 [Example 675, (3S)-N-(4-{1-[(4-fluorophenyl)acetyl]piperidin-4-yl}phenyl)-1-(pyridazin-3-yl)pyrrolidine-3-carboxamide]"
10,2.02 nM,"O=C(Nc1ccc(C2CCN(C(=O)c3cccc(F)c3F)CC2)cc1)[C@H]1CCN(c2cccnn2)C1 [Example 676, (3S)-N-{4-[1-(2,3-difluorobenzoyl)piperidin-4-yl]phenyl}-1-(pyridazin-3-yl)pyrrolidine-3-carboxamide]"
11,9.3 nM,"Cc1cccc(C(=O)N2CCC(c3ccc(NC(=O)[C@H]4CCN(c5cccnn5)C4)cc3)CC2)c1 [Example 677, (3S)-N-{4-[1-(3-methylbenzoyl)piperidin-4-yl]phenyl}-1-(pyridazin-3-yl)pyrrolidine-3-carboxamide]"
12,6.09 nM,"CCCCCC(=O)N1CCC(c2ccc(NC(=O)[C@H]3CCN(c4cccnn4)C3)cc2)CC1 [Example 678, (3S)-N-[4-(1-hexanoylpiperidin-4-yl)phenyl]-1-(pyridazin-3-yl)pyrrolidine-3-carboxamide]"
13,0.6 nM,"Cc1ccsc1C(=O)N1CCC(c2ccc(NC(=O)[C@H]3CCN(c4cccnn4)C3)cc2)CC1 [Example 679, (3S)-N-(4-{1-[(3-methylthiophen-2-yl)carbonyl]piperidin-4-yl}phenyl)-1-(pyridazin-3-yl)pyrrolidine-3-carboxamide]"
14,3.55 nM,"CC(C)C(C)C(=O)N1CCC(c2ccc(NC(=O)[C@H]3CCN(c4cccnn4)C3)cc2)CC1 (stereo partly drawn) [Example 680, (3S)-N-{4-[1-(2,3-dimethylbutanoyl)piperidin-4-yl]phenyl}-1-(pyridazin-3-yl)pyrrolidine-3-carboxamide]"
15,9.02 nM,"CCCC(=O)N1CCC(c2ccc(NC(=O)[C@H]3CCN(c4cccnn4)C3)cc2)CC1 [Example 681, (3S)-N-[4-(1-butanoylpiperidin-4-yl)phenyl]-1-(pyridazin-3-yl)pyrrolidine-3-carboxamide]"
16,2.73 nM,"CCC(C)CC(=O)N1CCC(c2ccc(NC(=O)[C@H]3CCN(c4cccnn4)C3)cc2)CC1 (stereo partly drawn) [Example 682, (3S)-N-{4-[1-(3-methylpentanoyl)piperidin-4-yl]phenyl}-1-(pyridazin-3-yl)pyrrolidine-3-carboxamide]"
17,9.02 nM,"Cc1cc(C)cc(CC(=O)N2CCC(c3ccc(NC(=O)[C@H]4CCN(c5cccnn5)C4)cc3)CC2)c1 [Example 683, (3S)-N-(4-{1-[(3,5-dimethylphenyl)acetyl]piperidin-4-yl}phenyl)-1-(pyridazin-3-yl)pyrrolidine-3-carboxamide]"
